According to PubChem BioAssay AID256 (DTP/NCI, 2004):
Inconclusive results and toxic doses are left out. Non-standard residues stand in square brackets, D forms with d. Residues, ends and D or L forms follow the SMILES beside them. ξ: configuration not given here. *: point of attachment. Boc = CC(C)(C)OC(=O)*; ξP = O=C(O)C1CCCN1

System: CD2F1 mice, L1210 leukemia ip, survival T/C
Experiment: NCI In Vivo Anticancer Drug Screen. Data for tumor model L1210 Leukemia (intraperitoneal) in CD2F1 (CDF1) mice
Settings: higher = longer survival
How it was run: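 Implant tumor; dose compound or vehicle; measure endpoint in both groups; report treated divided by control.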

[1] = endpoint: mean survival time, dose: 100.0 mg/kg/injection, schedule: Q04DX003 (ip), vehicle: saline with Tween-80
[2] = endpoint: mean survival time, dose: 200.0 mg/kg/injection, schedule: Q04DX003 (ip), vehicle: saline with Tween-80
[3] = endpoint: mean survival time, dose: 400.0 mg/kg/injection, schedule: Q04DX003 (ip), vehicle: saline with Tween-80
[4] = endpoint: mean survival time, dose: 25.0 mg/kg/injection, schedule: Q04DX002 (ip), vehicle: saline with Tween-80
[5] = endpoint: mean survival time, dose: 75.0 mg/kg/injection, schedule: Q01DX001 (ip), vehicle: saline
[6] = endpoint: mean survival time, dose: 100.0 mg/kg/injection, schedule: Q01DX001 (ip), vehicle: saline with Tween-80
[7] = endpoint: mean survival time, dose: 150.0 mg/kg/injection, schedule: Q01DX001 (ip), vehicle: saline
[8] = endpoint: mean survival time, dose: 200.0 mg/kg/injection, schedule: Q01DX001 (ip), vehicle: saline with Tween-80
[9] = endpoint: mean survival time, dose: 100.0 mg/kg/injection, schedule: Q01DX009 (ip), vehicle: saline with Tween-80
[10] = endpoint: mean survival time, dose: 200.0 mg/kg/injection, schedule: Q01DX009 (ip), vehicle: saline with Tween-80

## O=C1Nc2ccc([N+](=O)[O-])c3c([N+](=O)[O-])ccc1c23
[1]
  T/C: 98 % of control
[2]
  T/C: 97 % of control
[3]
  T/C: 102 % of control

## NCCNCCNCCNCCN (tested in a mixture with another compound)
endpoint: mean survival time, dose: 50.0 mg/kg/injection, schedule: Q01DX009 (ip), vehicle: saline
  T/C: 104 % of control
endpoint: mean survival time, dose: 100.0 mg/kg/injection, schedule: Q01DX009 (ip), vehicle: saline
  T/C: 111 % of control
[1]
  T/C: 110 % of control
[2]
  T/C: 105 % of control

## CC(C)CC(CC(C)C)C(=O)C1C2CCC(O2)C1C(=O)C(CC(C)C)CC(C)C (centres undefined)
[4]
  T/C: 88 % of control

## CC(=O)OCC1OC([S][Sb]([CH3])[CH3])C(OC(C)=O)C(OC(C)=O)C1OC(C)=O (centres undefined)
endpoint: mean survival time, dose: 50.0 mg/kg/injection, schedule: Q01DX009 (ip), vehicle: Klucel (hydroxypropylcellulose) (HPC)
  T/C: 92 % of control

## CC(C)(C=O)CNC(C)(C)C
[1]
  T/C: 105 % of control
[2]
  T/C: 96 % of control

## CCCCCCCCCCCCCCCCCC(=O)NCCN(CC)CC
[5]
  T/C: 101 % of control

## c1cc2c3c(cccc3c1)N=S=N2
[1]
  T/C: 89 % of control
[2]
  T/C: 89 % of control
[3]
  T/C: 86 % of control

## O=[N+]([O-])c1ccc(S(=O)(=O)Cc2ccccc2)c([N+](=O)[O-])c1
endpoint: mean survival time, dose: 75.0 mg/kg/injection, schedule: Q01DX001 (ip), vehicle: other
  T/C: 98 % of control
endpoint: mean survival time, dose: 150.0 mg/kg/injection, schedule: Q01DX001 (ip), vehicle: other
  T/C: 93 % of control
endpoint: mean survival time, dose: 300.0 mg/kg/injection, schedule: Q01DX001 (ip), vehicle: other
  T/C: 106 % of control

## CCC[As](=O)(O)CC[As](=O)(O)CCC
endpoint: mean survival time, dose: 25.0 mg/kg/injection, schedule: Q01DX001 (ip), vehicle: saline with Tween-80
  T/C: 95 % of control
endpoint: mean survival time, dose: 50.0 mg/kg/injection, schedule: Q01DX001 (ip), vehicle: saline with Tween-80
  T/C: 95 % of control
[6]
  T/C: 103 % of control

## OC(CC1CCCC(CC(O)c2ccccc2)N1CCc1ccccc1)c1ccccc1 (centres undefined)
[5]
  T/C: 97 % of control
[7]
  T/C: 91 % of control

## CCCCCCC1=C(O)C(=O)C(CCCCCC)=C(O)C1=O
endpoint: mean survival time, dose: 100.0 mg/kg/injection, schedule: Q01DX001 (ip), vehicle: saline
  T/C: 100 % of control
endpoint: mean survival time, dose: 200.0 mg/kg/injection, schedule: Q01DX001 (ip), vehicle: saline
  T/C: 97 % of control
endpoint: mean survival time, dose: 400.0 mg/kg/injection, schedule: Q01DX001 (ip), vehicle: saline
  T/C: 97 % of control

## O=C(O)CC(Sc1ccccc1)c1ccccc1 (centres undefined)
endpoint: mean survival time, dose: 100.0 mg/kg/injection, schedule: Q04DX003 (ip), vehicle: other
  T/C: 97 % of control
endpoint: mean survival time, dose: 200.0 mg/kg/injection, schedule: Q04DX003 (ip), vehicle: other
  T/C: 101 % of control

## CCOC(=O)Nc1cc(NCc2ccccc2)c(N)c(N)n1
[6]
  T/C: 103 % of control
[8]
  T/C: 103 % of control

## CCN(CC)c1ccc(N=Nc2c(C)nc(N)nc2-c2ccccc2)cc1
[7]
  T/C: 97 % of control

## CC(C)(C)SC1C(O)C(CO)OC1n1ccc(N)nc1=O (centres undefined)
endpoint: median survival time, dose: 12.5 mg/kg/injection, schedule: Q01DX005 (ip), vehicle: saline
  T/C: 103 % of control
endpoint: median survival time, dose: 25.0 mg/kg/injection, schedule: Q01DX005 (ip), vehicle: saline
  T/C: 96 % of control
endpoint: median survival time, dose: 50.0 mg/kg/injection, schedule: Q01DX005 (ip), vehicle: saline
  T/C: 103 % of control
endpoint: median survival time, dose: 100.0 mg/kg/injection, schedule: Q01DX005 (ip), vehicle: saline
  T/C: 108 % of control
endpoint: median survival time, dose: 200.0 mg/kg/injection, schedule: Q01DX005 (ip), vehicle: saline
  T/C: 103 % of control

## COC(=O)CNC(=O)C1CCCN1C(=O)OC(C)(C)C (centres undefined) (Boc-[ξP]-Gly-OMe)
endpoint: mean survival time, dose: 100.0 mg/kg/injection, schedule: Q04DX003 (ip), vehicle: saline
  T/C: 94 % of control
endpoint: mean survival time, dose: 200.0 mg/kg/injection, schedule: Q04DX003 (ip), vehicle: saline
  T/C: 97 % of control
endpoint: mean survival time, dose: 400.0 mg/kg/injection, schedule: Q04DX003 (ip), vehicle: saline
  T/C: 107 % of control

## CC1(C)COC(c2ccccc2)OC1
[6]
  T/C: 95 % of control
[8]
  T/C: 103 % of control
endpoint: mean survival time, dose: 400.0 mg/kg/injection, schedule: Q01DX001 (ip), vehicle: saline with Tween-80
  T/C: 101 % of control

## C[Si](C)(C)Oc1c(Cl)cc(Cl)cc1Cl
[9]
  T/C: 100 % of control
[10]
  T/C: 91 % of control
endpoint: mean survival time, dose: 400.0 mg/kg/injection, schedule: Q01DX009 (ip), vehicle: saline with Tween-80
  T/C: 87 % of control

## CCCc1nc(N)nc(N)n1
endpoint: mean survival time, dose: 50.0 mg/kg/injection, schedule: Q01DX009 (ip), vehicle: saline with Tween-80
  T/C: 104 % of control
[9]
  T/C: 104 % of control
[10]
  T/C: 116 % of control

## C=C(CCCCCCCCCCCCCCCC)C(=O)O
[4]
  T/C: 90 % of control
endpoint: mean survival time, dose: 50.0 mg/kg/injection, schedule: Q04DX002 (ip), vehicle: saline with Tween-80
  T/C: 87 % of control
endpoint: mean survival time, dose: 100.0 mg/kg/injection, schedule: Q04DX002 (ip), vehicle: saline with Tween-80
  T/C: 94 % of control

## COc1ccc(O)c(CC(C)C)c1
endpoint: mean survival time, dose: 100.0 mg/kg/injection, schedule: Q01DX009 (ip), vehicle: acetone
  T/C: 100 % of control
endpoint: mean survival time, dose: 200.0 mg/kg/injection, schedule: Q01DX009 (ip), vehicle: acetone
  T/C: 104 % of control
endpoint: mean survival time, dose: 400.0 mg/kg/injection, schedule: Q01DX009 (ip), vehicle: acetone
  T/C: 96 % of control
